According to patent publication US20260356887A1, “NOVEL MYD88 INHIBITOR FOR TREATMENT OF AUTOIMMUNE DISEASES AND USES THEREOF” (S&K THERAPEUTICS, priority 2023, published 2026):
Structures can show the parent of a compound that is named as a salt. No end group written: not given here.

Assays:
[1] = system: C57BL/6 mice with MOG35-55-induced EAE; experiment: MOG35-55-induced experimental autoimmune encephalomyelitis (EAE) model; assay type: in vivo, mouse
Method: Eight-week-old female C57BL/6 (B6) mice (Orient Bio, Korea) were maintained in a specific pathogen-free environment on a standard laboratory ad libitum diet. All experiments were approved by the Animal Care and Use Committee [NDIC Approval Nos. 12022111 (EAE) and I2022053-3 (psoriasis), Hwaseong, Korea] and were performed in accordance with relevant guidelines and regulations.
EAE was induced in mice using the Hooke Kit (MOG35-55/complete Freund's adjuvant (CFA) Emulsion PTX (Hooke Laboratories, LLC, Lawrence, MA, USA)) according to the manufacturer's protocol. Mice were immunized subcutaneously with myelin oligodendrocyte glycoprotein emulsified in complete Freund's adjuvant. […]
Mice were weighed and examined daily, and EAE symptoms were assessed using the following standard scoring system: 0-6: 0, no symptoms; 1, limp tail; 2, limp tail and hind limb paralysis; 3, paralysis of one or more hind limbs; 4, complete hind limb and hindquarter paralysis; 5, hindquarter paralysis with forelimb paralysis; and 6, death. […]
To investigate the therapeutic potential of MyDIP2-4 on EAE progression, mice were immunized with MOG35-55 peptide in CFA and pertussis toxin was administered once on day 0 and again 24 hours later. […] Mouse body weight and EAE clinical scores were recorded three times a week: days 0, 2, 5, 7, 9, 12, 14, 16, 19, and 21.

[2] = system: C57BL/6 mice with IMQ-induced psoriasis; experiment: Imiquimod-induced psoriasis model; assay type: in vivo, mouse; details: MyDIP2-4 5 and 20 mg/kg i.p., dexamethasone 10 mg/kg oral
Method: Six-week-old female C57BL/6 mice (Orient Bio, Seongnam, Korea) were housed under specific pathogen-free conditions on a standard laboratory ad libitum diet. Animal experiments related to psoriasis were approved by the Animal Care and Use Committee [NDIC Approval Nos. 12022111 (EAE) and I2022053-3 (psoriasis), Hwaseong, Korea] and were performed in accordance with relevant guidelines and regulations.
Disease was induced by topical application of Aldara cream (Donga ST; Seoul, Korea) containing 5% imiquimod onto the back of six-week-old female C57BL/6 mice for 5 consecutive days. MyDIP2-4 was administered intraperitoneally at doses of 5 and 20 mg/kg. As a positive control group, dexamethasone (Sigma-Aldrich; cat. No. D1756) was administered orally at a dose of 10 mg/kg. Five days later, mice were sacrificed under respiratory anesthesia, and skin lesions were collected for histological examination.
An objective scoring system to quantify the severity of back skin inflammation was established based on the PASI scoring system, a widely used clinical tool to assess psoriasis severity. On a scale from 0 to 4, factors such as erythema, scaling, wrinkles, and thickness were individually assessed as follows: 0, none; 1, weak; 2, moderate; 3, significant; and 4, very evident. Under the careful supervision of experienced investigators, erythema, scaling, and thickness were graded. The cumulative score (erythema+scaling+thickness score, scale 0-12) indicates the severity of psoriasis symptoms.
Skin tissue was removed, the upper layer was fixed in neutral formalin, and H&E staining and IHC were performed. Epidermal thickness of skin tissue was measured using H&E staining. IL-17, KI-67, and IL-23 levels were measured using IHC with the aid of antibodies against IL-17A (Thermo Fisher Scientific; cat. No. PA5-79470), KI-67 (Cell Signaling; cat. No. 12202), and IL-23 (Novus Biologicals; cat. No. NBP1-76697).
To establish an IMQ-induced psoriasis model, Aldara cream containing 5% imiquimod was topically applied onto the back of six-week-old female C57BL/6 mice for 5 consecutive days. […]

[3] = system: RAW 264.7 cells; experiment: Macrophage viability (MTT assay) in RAW 264.7 cells; assay type: cell-based; details: mouse macrophages; 50 μM; 24 hours
Method: THP-1 and RAW 264.7 cells (ATCC, Manassas, VA, USA) were cultured at 37 °C and 5% CO2 in RPMI (Roswell Park Memorial Institute) medium and Dulbecco's modified Eagle medium supplemented with fetal bovine serum (FBS, 10%), 4 mM L-glutamine, 1 mM sodium pyruvate, penicillin (100 units/ml), and streptomycin (0.1 mg/ml). THP-1 cells, which are monocytes, were differentiated into macrophages by treatment with 80 nM phorbol 12-myristate 13-acetate (PMA, Sigma-Aldrich) for 24 hours. The cells were cultured at 37 °C and 5% CO2 in a humidified incubator (Thermo Fisher Scientific, Inc.), and the medium was replaced every 18 hours.
To evaluate the cytotoxic effect of the peptide on mouse and human macrophages, RAW 264.7 cells and THP-1-derived macrophages were seeded at respective densities of 5×10^4/well and 2×10^5/well in 96-well plates (BD Biosciences, San Jose, CA, USA) followed by culture overnight at 37 °C in a humidified incubator. After treating the cells with the peptide at the corresponding concentration for 24 hours, viability was measured using 3-(4,5-dimethylthiazol-2-yl)-2,5-diphenyltetrazolium bromide (MTT) assay (Sigma-Aldrich). […] Relative cell viability was calculated by measuring absorbance at 570 nm, and the untreated control group was designated as having a relative viability of 100%. […]

[4] = target: human MyD88 protein (Homo sapiens, UniProt Q99836); experiment: Surface plasmon resonance (SPR) analysis of MyDIP2-4 and MyD88; assay type: binding; details: MyD88 immobilized on NTA chip, MyDIP2-4 0.8 to 12.8 μM in PBS
Method: The biophysical interactions between MyDIP2-4 and MyD88 were evaluated using SPR analysis in an iMSPR-mini system (icluebio, Seongnam, Korea). MyD88 protein was immobilized on the surface of a nitrilotriacetic acid (NTA) sensor chip at a concentration of 50 μg/ml. MyDIP2-4 was injected into the MyD88-binding chip at various concentrations ranging from 0.8 to 12.8 μM (dissolved in PBS) at a flow rate of 50 μl/min. PBS was used as a running buffer and injected into the empty channel as a reference. Experiments were performed twice using freshly prepared reagents, and data were analyzed using TraceDrawer software (Ridgeview Instruments; Uppsala, Sweden).
SPR technology was used to evaluate the biophysical interaction between the MyDIP2-4 peptide and the MyD88 protein. SPR analysis involves immobilizing the MyD88 protein on the surface of a sensor chip and then flowing the MyDIP2-4 peptide at various concentrations.

Chain of human MyD88 protein (Q99836 whole entry): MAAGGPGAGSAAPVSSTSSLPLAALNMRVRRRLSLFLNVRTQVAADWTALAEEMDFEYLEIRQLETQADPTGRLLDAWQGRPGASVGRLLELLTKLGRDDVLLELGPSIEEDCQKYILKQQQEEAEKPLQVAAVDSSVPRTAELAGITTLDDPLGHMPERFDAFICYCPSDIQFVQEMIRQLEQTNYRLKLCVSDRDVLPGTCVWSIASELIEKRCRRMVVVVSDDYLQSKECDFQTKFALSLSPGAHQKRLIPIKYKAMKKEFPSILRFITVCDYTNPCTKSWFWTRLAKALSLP

COC(=O)/C=C/C(=O)OC [DMF, dimethyl fumarate]
EAE clinical score compared to MyDIP2-4 ([1]; day 21, DMF 100 mg/kg vs MyDIP2-4 40 mg/kg): reduced clinical scores

C[C@@H]1C[C@H]2[C@@H]3CCC4=CC(=O)C=C[C@]4(C)[C@@]3(F)[C@@H](O)C[C@]2(C)[C@@]1(O)C(=O)CO [dexamethasone]
epidermal thickness ([2]; H&E): significantly reduced
IL-17 expression in skin tissue ([2]; IHC): did not inhibit
KI-67 in skin tissue (KI-67-positive cells) ([2]; IHC): significant decrease

RQIKIWFQNRRMKWKKWLWFILFKKLSLP [MyDIP2-4]
cytotoxicity (MTT) [3]: not cytotoxic
body weight compared to DMF-treated mice (EAE) ([1]; MyDIP2-4 40 mg/kg i.p. once daily, DMF 100 mg/kg): no difference in body weight
kon ([4]; read-out: rate constant for association (Ka)): 3.7 M⁻¹ s⁻¹
koff ([4]; read-out: rate constant for dissociation (Kd)): 1.37e-07 s⁻¹
